Patent US6897219B2, “Heteroaryl diazacycloalkanes, their preparation and use” (priority 1997, dated 2005)
Like-named read-outs stand apart in the source and are kept apart here.

How the values were obtained:
[1] = biological target: nAChR formed by the α7 subunit isoform (Rattus norvegicus, UniProt Q05941); assay: biochemical; assay type: binding
[2] = biological target: nAChRs comprised of α4 and β2 subunits (Rattus norvegicus, UniProt P09483+P12390); assay: In vitro inhibition of 3H-cytisine binding
Chain of nAChRs comprised of α4 and β2 subunits (P09483 31-630): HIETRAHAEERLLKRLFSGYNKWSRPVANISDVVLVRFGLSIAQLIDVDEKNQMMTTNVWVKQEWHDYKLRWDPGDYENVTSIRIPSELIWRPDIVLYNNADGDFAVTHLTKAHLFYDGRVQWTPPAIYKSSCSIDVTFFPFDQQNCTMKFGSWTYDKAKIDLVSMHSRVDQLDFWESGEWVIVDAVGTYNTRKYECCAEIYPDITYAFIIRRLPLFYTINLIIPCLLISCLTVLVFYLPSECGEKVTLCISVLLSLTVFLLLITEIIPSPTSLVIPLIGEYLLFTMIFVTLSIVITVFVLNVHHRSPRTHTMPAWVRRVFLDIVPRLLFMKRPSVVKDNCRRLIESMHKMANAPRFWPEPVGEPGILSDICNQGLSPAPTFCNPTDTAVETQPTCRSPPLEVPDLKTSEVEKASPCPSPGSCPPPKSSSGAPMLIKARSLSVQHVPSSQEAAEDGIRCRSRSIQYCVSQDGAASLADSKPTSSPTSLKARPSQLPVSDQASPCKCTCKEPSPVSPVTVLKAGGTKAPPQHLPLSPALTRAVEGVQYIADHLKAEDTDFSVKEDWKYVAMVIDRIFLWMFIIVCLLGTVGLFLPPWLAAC
Chain of nAChRs comprised of α4 and β2 subunits (P12390 25-500): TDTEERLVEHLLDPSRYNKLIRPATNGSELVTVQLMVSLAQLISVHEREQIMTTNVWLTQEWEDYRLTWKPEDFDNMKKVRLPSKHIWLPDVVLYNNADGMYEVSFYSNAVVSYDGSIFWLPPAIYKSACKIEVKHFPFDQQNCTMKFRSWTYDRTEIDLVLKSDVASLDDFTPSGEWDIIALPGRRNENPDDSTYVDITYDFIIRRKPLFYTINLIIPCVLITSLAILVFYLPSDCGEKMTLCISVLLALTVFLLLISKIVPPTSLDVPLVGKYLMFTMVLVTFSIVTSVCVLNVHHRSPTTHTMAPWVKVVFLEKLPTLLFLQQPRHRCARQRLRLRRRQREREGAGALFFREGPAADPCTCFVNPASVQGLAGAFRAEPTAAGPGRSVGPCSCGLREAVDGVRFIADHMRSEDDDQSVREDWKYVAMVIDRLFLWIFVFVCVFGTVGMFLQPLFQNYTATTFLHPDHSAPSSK
Experimental: The predominant subtype with high affinity for nicotine is comprised of α4 and β2 subunits. nAChRs of the latter type can selectively be labelled by the nicotine agonist ^3H-cytisine.
Tissue Preparation: Preparations are performed at 0-4° C. unless otherwise indicated. […] The homogenate is centrifuged at 27,000×g for 10 min. The supernatant is discarded and the pellet is resuspended in fresh buffer and centrifuged a second time. The final pellet is resuspended in fresh buffer (35 ml per g of original tissue) and used for binding assays.
Assay: Aliquots of 500 μl homogenate are added to 25 μl of test solution and 25 μl of ^3H-cytisine (1 nM, final concentration), mixed and incubated for 90 min at 2° C. Non-specific binding is determined using (−)-nicotine (100 μM, final concentration). After incubation the samples are added 5 ml of ice-cold buffer and poured directly onto Whatman GF/C glass fibre filters under suction and immediately washed with 2×5 ml ice-cold buffer. The amount of radioactivity on the filters is determined by conventional liquid scintillation counting. Specific binding is total binding minus non-specific binding.

[3] = biological target: T1, neuronal nicotinic receptors (α4β2 subtype high affinity site) (Rattus norvegicus, UniProt P09483+P12390); assay: In vitro inhibition of 3H-epibatidin binding
T1 construct: The forebrain (÷cerebellum) from a male Wistar rat (150-250 g) is homogenized; from tissue; host or cells: rat forebrain (without cerebellum) membrane homogenate
T1 sequence (P09483 31-630): as the sequence (P09483 31-630) above
T1 sequence (P12390 25-500): as the sequence (P12390 25-500) above
Experimental: The high affinity binding site for ^3H-epibatidin is most certainly binding to the α4β2 subtype of nicotinic receptors. The identity of the low affinity site is still unknown; does it represent a second nicotinic receptor or a second site in the same receptor.
Tissue preparation: Preparations are performed at 0-4° C. unless otherwise indicated. The forebrain (÷cerebellum) from a male Wistar rat (150-250 g) is homogenized for 10-20 sec in 20 ml Tris, HCl (50 mM, pH 7.4) using an Ultra-Turrax homogenizer. The tissue suspension is centrifuged at 27,000×g for 10 min. The supernatant is discarded and the pellet is washed three times by centrifugation at 27,000×g for 10 min in 20 ml fresh buffer, and the final pellet is resuspended in fresh buffer (400 ml per g of original tissue) and used for binding assays.
Assay: Aliquots of 2.0 ml homogenate are added to 0.100 ml of test solution and 0.100 ml of ^3H-epibatidin (0.3 nM, final concentration), mixed and incubated for 60 min at room temperature. Non-specific binding is determined using (−)-nicotine (30 μM, final concentration). After incubation the samples are poured directly onto Whatman GF/C glass fibre filters (presoaked in 0.1% PEI for at least 20 min) under suction and immediately washed with 2×5 ml ice-cold buffer. The amount of radioactivity on the filters is determined by conventional liquid scintillation counting. Specific binding is total binding minus non-specific binding.

[4] = rat cerebral cortex homogenate, 1 nM 3H-cytisine, 90 min at 2° C., read-out: 3H-cytisine IC50
[5] = rat forebrain homogenate, 0.3 nM 3H-epibatidin, 60 min at room temperature, read-out: 3H-epibatidin IC50

Chain of nAChR formed by the α7 subunit isoform (Q05941 23-502): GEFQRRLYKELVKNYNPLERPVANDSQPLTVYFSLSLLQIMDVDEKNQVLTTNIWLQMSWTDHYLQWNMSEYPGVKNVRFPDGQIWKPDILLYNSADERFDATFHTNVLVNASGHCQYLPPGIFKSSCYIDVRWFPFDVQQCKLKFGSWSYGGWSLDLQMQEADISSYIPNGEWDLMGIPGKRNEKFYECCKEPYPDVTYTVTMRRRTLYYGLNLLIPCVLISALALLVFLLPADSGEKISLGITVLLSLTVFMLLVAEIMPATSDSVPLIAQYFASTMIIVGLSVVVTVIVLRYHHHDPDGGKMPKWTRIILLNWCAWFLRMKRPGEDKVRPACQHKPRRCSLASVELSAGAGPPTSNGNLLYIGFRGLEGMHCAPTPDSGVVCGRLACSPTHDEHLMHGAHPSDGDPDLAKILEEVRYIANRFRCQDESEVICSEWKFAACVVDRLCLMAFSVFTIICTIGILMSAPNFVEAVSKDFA

CN1CCN(c2cccnc2)CC1 [Compound 1A, 4-Methyl-1-(3-pyridyl)-piperazine]
IC50 [1]: 6.8 µM

c1cncc(N2CCNCC2)c1 [Compound 1B, 1-(3-Pyridyl)-piperazine]
IC50 [2, 4]: 0.13 µM | IC50 [3, 5]: 0.63 µM | IC50 [1]: > 30 µM

CCOc1cncc(N2CCNCC2)c1 [Compound 1D, 1-(5-Ethoxy-3-pyridyl)piperazine]
IC50 [2, 4]: 0.5 µM | IC50 [3]: 1 µM | IC50 [1]: > 30 µM

CN1CCCN(c2cccnc2)CC1 [Compound 1E, 4-Methyl-1-(3-pyridyl)-homopiperazine]
IC50 [2, 4]: 0.15 µM | IC50 [3]: 0.4 µM | IC50 [1]: 4.6 µM

c1cncc(N2CCCNCC2)c1 [Compound 1F, 1-(3-Pyridyl)-homopiperazine]
IC50 [2]: 0.002 µM | IC50 [3]: 0.005 µM

COc1cncc(N2CCCNCC2)c1 [Compound 1H, 1-(5-Methoxy-3-pyridyl)-homopiperazine]
IC50 [2]: 0.002 µM | IC50 [3]: 0.02 µM | IC50 [1]: 3 µM

Clc1ccc(N2CCCNCC2)nn1 [Compound 1K, 1-(6-Chloro-3-pyridazinyl)-homopiperazine]
IC50 [2]: 0.01 µM | IC50 [3]: 0.06 µM | IC50 [1]: 1.4 µM

c1cnnc(N2CCCNCC2)c1 [Compound 1L, 1-(3-Pyridazinyl)-homopiperazine]
IC50 [2]: 0.03 µM | IC50 [3]: 0.25 µM | IC50 [1]: 1.6 µM

COc1cncc(N2CCN(C)C2)c1 [Compound 1M, 1-(5-Methoxy-3-pyridyl)-3-methyl-imidazolidine]
IC50 [2]: 0.59 µM | IC50 [3]: 8.8 µM | IC50 [1]: > 30 µM

CCCCOc1cncc(N2CCNCC2)c1 [Compound 2D, 1-(5-Butoxy-3-pyridyl)piperazine]
IC50 [2, 4]: 0.18 µM | IC50 [3]: 1.4 µM | IC50 [1]: > 30 µM

CN1CCCN(c2cnc3ccccc3c2)CC1 [Compound 2E, 4-Methyl-1-(3-quinolinyl)-homopiperazine]
IC50 [2, 4]: 0.34 µM | IC50 [3]: 4.9 µM | IC50 [1]: 1.8 µM

c1ccc2ncc(N3CCCNCC3)cc2c1 [Compound 2F, 1-(3-Quinolinyl)-homopiperazine]
IC50 [2]: 0.006 µM | IC50 [3]: 0.084 µM | IC50 [1]: 5.9 µM

c1ccc(-c2cncc(N3CCCNCC3)c2)cc1 [Compound 2H, 1-(5-Phenyl-3-pyridyl)-homopiperazine]
IC50 [2, 4]: 0.003 µM | IC50 [3]: 0.02 µM | IC50 [1]: 37 µM

c1ccc2nc(N3CCCNCC3)cnc2c1 [Compound 2L, 1-(2-Quinoxalinyl)-homopiperazine]
IC50 [2, 4]: 0.26 µM | IC50 [3]: 2 µM | IC50 [1]: 27 µM

COc1cncc(N2CCCN(C)C2)c1 [Compound 2M, 1-(5-Methoxy-3-pyridyl)-3-methyl-1,3-diazacyclohexane]
IC50 [2]: 0.09 µM | IC50 [3, 5]: 2.7 µM | IC50 [1]: > 30 µM

COc1cncc(N2CCNCC2)c1 [Compound 3B, 1-(5-Methoxy-3-pyridyl)-piperazine]
IC50 [2, 4]: 0.8 µM | IC50 [3]: 4.5 µM | IC50 [1]: > 30 µM

COc1cncc(N2CCCN(C)CC2)c1 [Compound 3E, 1-(5-Methoxy-3-pyridyl)-4-methyl-homopiperazine]
IC50 [2]: 0.094 µM | IC50 [3, 5]: 0.75 µM | IC50 [1]: 26 µM

CCOc1cncc(N2CCCNCC2)c1 [Compound 3H, 1-(5-Ethoxy-3-pyridyl)-homopiperazine]
IC50 [2]: 0.002 µM | IC50 [3]: 0.01 µM | IC50 [1]: 20 µM

Clc1cncc(N2CCCNCC2)n1 [Compound 3K, 1-(6-Chloro-2-pyrazinyl)-homopiperazine]
IC50 [2]: 0.02 µM | IC50 [3]: 0.16 µM | IC50 [1]: 5.6 µM

Clc1cncc(N2CCNCC2)c1 [Compound 4B, 1-(5-Chloro-3-pyridyl)-piperazine]
IC50 [2, 4]: 0.31 µM | IC50 [3]: 3 µM | IC50 [1]: > 30 µM

CCOc1cncc(N2CCCN(C)CC2)c1 [Compound 4E, 1-(5-Ethoxy-3-pyridyl)-4-methyl-homopiperazine]
IC50 [2]: 0.05 µM | IC50 [3, 5]: 0.3 µM | IC50 [1]: > 30 µM

CN1CCN(c2cncc(Cl)c2)CC1 [Compound 5A, 1-(5-Chloro-3-pyridyl)-4-Methyl-piperazine]
IC50 [2]: 0.08 µM | IC50 [3]: 0.65 µM | IC50 [1]: 73.4 µM

CN1CCCN(c2cncc(-c3ccccc3)c2)CC1 [Compound 5E, 4-Methyl-1-(5-phenyl-3-pyridyl)-homopiperazine]
IC50 [2, 4]: 0.2 µM | IC50 [3]: 1.5 µM | IC50 [1]: 16 µM

COc1cc(N2CCCNCC2)cnc1Cl [Compound 5F, 1-(6-Chloro-5-methoxy-3-pyridyl)-homopiperazine]
IC50 [2]: 0.0007 µM | IC50 [3]: 0.005 µM | IC50 [1]: 0.9 µM

COCCOc1cncc(N2CCCNCC2)c1 [Compound 5H, 1-(5-Methoxyethoxy-3-pyridyl)-homopiperazine]
IC50 [2]: 0.002 µM | IC50 [3]: 0.02 µM | IC50 [1]: 19 µM

Cc1ccc(N2CCCNCC2)nn1 [Compound 5K, 1-(6-Methyl-3-pyridazinyl)-homopiperazine]
IC50 [2]: 0.16 µM | IC50 [3]: 0.74 µM | IC50 [1]: 4.8 µM

CN1CCN(c2cncc(-c3ccccc3)c2)CC1 [Compound 6A, 4-Methyl-1-(5-phenyl-3-pyridyl)-piperazine]
IC50 [2]: 0.08 µM | IC50 [3, 5]: 1.1 µM | IC50 [1]: > 30 µM

COc1cncc(N2CCCNCCC2)c1 [Compound 6B, 1-(5-Methoxy-3-pyridyl)-1,5-diazacyclooctane]
IC50 [2]: 0.001 µM | IC50 [3]: 0.0032 µM | IC50 [1]: 2.5 µM

CCCCOc1cncc(N2CCCN(C)CC2)c1 [Compound 6E, 1-(5-Butoxy-3-pyridyl)-4-methyl-homopiperazine]
IC50 [2]: 0.045 µM | IC50 [3, 5]: 0.24 µM | IC50 [1]: > 30 µM

CC(C)COc1cncc(N2CCCNCC2)c1 [Compound 6H, 1-[5-(2-Methyl-propoxy)-3-pyridyl]-homopiperazine]
IC50 [2]: 0.002 µM | IC50 [3]: 0.01 µM | IC50 [1]: > 30 µM

FC(F)(F)c1cncc(N2CCCNCC2)c1 [Compound 6K, 1-(5-Triflouromethyl-3-pyridyl)-homopiperazine]
IC50 [2, 4]: 0.009 µM | IC50 [3, 5]: 0.04 µM | IC50 ([1]; read-out: 3H-α-bungarotoxin IC50): 6.4 µM

CCOc1cncc(N2CCN(C)CC2)c1 [Compound 7A, 1-(5-Ethoxy-3-pyridyl)-4-methyl-piperazine]
IC50 [2]: 0.006 µM | IC50 [3]: 0.09 µM | IC50 [1]: > 30 µM

Clc1ccc(N2CCCNCCC2)nn1 [Compound 7B, 1-(6-Chloro-3-pyridazinyl)-1,5-diazacyclooctane]
IC50 [2]: 0.03 µM | IC50 [3, 5]: 0.15 µM | IC50 [1]: 0.46 µM

COCCOc1cncc(N2CCCN(C)CC2)c1 [Compound 7E, 1-(5-Methoxyethoxy-3-pyridyl)-4-methyl-homopiperazine]
IC50 [2]: 0.07 µM | IC50 [3, 5]: 0.55 µM | IC50 [1]: > 30 µM

Clc1ccc(N2CCCCNCC2)nn1 [Compound 8B, 1-(6-Chloro-3-pyridazinyl)-1,4-diazacyclooctane]
IC50 [2, 4]: 0.55 µM | IC50 [3]: 0.92 µM | IC50 [1]: 5.5 µM

CC(C)COc1cncc(N2CCCN(C)CC2)c1 [Compound 8E, 4-Methyl-1-[5-(2-methyl-propyloxy)-3-pyridyl]-homopiperazine]
IC50 [2]: 0.07 µM | IC50 [3, 5]: 0.45 µM | IC50 [1]: > 30 µM

Brc1ccc(N2CCCNCC2)cn1 [Compound 8K, 1-(6-Bromo-3-pyridyl)-homopiperazine]
IC50 [2, 4]: 0.001 µM | IC50 [3]: 0.01 µM | IC50 [1]: 0.62 µM

CCOc1cncc(N2CCN(CC)CC2)c1 [Compound 9D, 1-(5-Ethoxy-3-pyridyl)-4-ethyl-piperazine]
IC50 [2]: 0.07 µM | IC50 [3]: 0.21 µM | IC50 [1]: > 30 µM

COc1cncc(N2CCCNC(C)CC2)c1 (centres unmarked) [Compound 11A]
IC50 [2]: 0.04 µM | IC50 [1]: > 30 µM
